System: Nippostrongylus
Assay: Nippostrongylus in vitro (acetylcholine esterase determination)
Design: species or system Nippostrongylus brasiliensis
Settings: read-out: inhibition of the enzyme (full activity)
Protocol: Nippostrongylus are isolated from the small intestine of rats and washed with 0.9% of NaCl supplemented with 29 μg/ml sisomycin and 2 μg/ml of clotrimazole. The actual incubation of in each case 5 male and female Nippostrongylus is carried out in 1.0 ml of medium used for determining the activity of acetylcholine esterase. Enzyme determination is by the method of Rapson et al., 1987 (E. B. Rapson, D. C. Jenkins, A. S. Chilwan), Improved detection of anthelmintic activity in vitro screen utilizing adult Nippostrongylus brasiliensis. Parasitol. Res. 1987 73, 190 to 191.
The following key is used for the assessment: 3=full activity, 100% inhibition of the enzyme; 2=good activity, more than 75% inhibition; 1=poor activity, less than 50% inhibition.

## CCOC(=O)c1c(C)oc(=O)c(-c2c(C)cc(C)cc2C)c1O [Example 1]
  inhibition at 100 ppm: 100%
